Results: patent US20260083708A1, “IL-17 MODULATORS AND USES THEREOF” (NNOCARE PHARMA INC., priority 2024, published 2026)

Assays:
[1] = target: T1, IL-17AA and IL-17RA (Homo sapiens, UniProt Q16552); assay: Competitive inhibition of human IL-17AA and IL-17RA binding (HTRF); details: recombinant IL-17AA (His-tag) and IL-17RA (hFc-tag); read-out: IC50 for Inhibiting IL-AA/IL-RA Binding
T1 construct: purchased Sino Biological 12047-H07B (IL-17AA); 10895-H02H (IL-17RA)
T1 sequence (Q16552 24-155): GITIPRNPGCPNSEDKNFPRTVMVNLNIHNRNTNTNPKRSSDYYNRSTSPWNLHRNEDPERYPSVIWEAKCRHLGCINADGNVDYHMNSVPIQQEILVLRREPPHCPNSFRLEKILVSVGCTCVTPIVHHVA
Outline: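 His-IL-17AA (1 nM) premixed 1 h with anti-His-Tb (0.4 nM), and Fc-IL-17RA (1 nM) with anti-IgG-d2 (1 μg/mL); these are pre-mix levels. Compounds, diluted from 10 μM, preincubated 2 h RT with IL-17AA mix; IL-17RA mix then added, 20 min. 665/615 ratio vs no-compound and no-IL-17AA controls; IC50 by 4-parameter fit.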

[2] = test system: IL-17AA-induced IL-17 signaling pathway; assay: Inhibition of IL-17AA-induced IL-17 signaling pathway in HEK-Blue IL-17 reporter cells (SEAP); assay type: cell-based; details: Homo sapiens; HEK-Blue IL-17 cells, IL-17AA 2.5 ng/mL, 20 hours; read-out: IC50 for Inhibiting IL-AA Signaling
Outline: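 HEK-Blue IL-17 cells (HEK293 expressing human IL-17RA/RC, ACT1 and NF-κB/AP-1-driven SEAP), 10,000/well, pre-incubated with compound (serial dilution from 10 μM) for 1 h at 37 °C, then stimulated with IL-17AA at 2.5 ng/mL final for 20 h. SEAP in supernatant read with Quanti-Blue at 620 nm; IC50 by 4-parameter fit.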

[3] = test system: IL-17AF-induced IL-17 signaling pathway; assay: Inhibition of IL-17AF-induced IL-17 signaling pathway; assay type: cell-based; details: Homo sapiens; IL-17AF used instead of IL-17AA; read-out: IC50 for Inhibiting IL-AF Signaling
Outline: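 HEK293-derived HEK-Blue IL-17 cells (IL-17RA/RC, ACT1, NF-κB/AP-1-driven SEAP) preincubated 1 hour at 37° C with serially diluted compound from 10 μM, then stimulated with IL-17AF for 20 hours. SEAP read colorimetrically at 620 nm; IC50 from 4-parameter fit of % inhibition.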

[4] = test system: rat collagen induced arthritis (CIA) model; assay: In vivo efficacy study in rat collagen induced arthritis (CIA) model; details: female Lewis rats, 20 mg/kg PO once a day, 14 days
Description: Example 45. In Vivo Efficacy Study in Rat Collagen Induced Arthritis (CIA) Model
Bovine type II collagen solution (Chondrex) was emulsified with an equal volume of incomplete Freund's adjuvant (IFA, Sigma) to achieve an emulsion with a collagen concentration of 1 mg/mL. Female Lewis rats were immunized with the emulsion (200 μL per rat) through subcutaneous injection at the base of tail. After seven days from the initial immunization, rats received a booster injection of the emulsion (100 μL per rat). Each paw of the rat was evaluated and scored on a 0-4 scale based on arthritis severity, and the arthritis score of each rat was the sum of scores from four paws. When the arthritis scores reached 2-3, rats were randomized into four groups and dosed once a day via oral gavage (PO) with vehicle, compounds 35, 49 and 66 for 14 days, respectively. The arthritis score was assessed every other day. Efficacy was calculated by [1−(T14−T0)/(V14−V0)]×100%, where T14 and V14 are the average arthritis scores of the treatment group and the vehicle group on Day 14 of measurement, respectively, while T0 and V0 are the average arthritis scores of the treatment group and the vehicle group on Day 0, respectively. Statistical significance of difference in arthritis scores between the treatment and vehicle groups was analyzed using one-way ANOVA followed by Dunnett's test, and P<0.05 was considered statistically significant.

[2H]C([2H])([2H])n1nccc1C(=O)N[C@H](C(=O)Nc1ccc([C@H](C)[C@@H](NC(=O)COC)c2ncnn2CC2CC2)cc1F)C(C1CC1)C1CC1 [Compound 35, N-((S)-1,1-dicyclopropyl-3-((4-((1R,2S)-1-(1-(cyclopropylmethyl)-1H-1,2,4-triazol-5-yl)-1-(2-methoxyacetamido)propan-2-yl)-2-fluorophenyl)amino)-3-oxopropan-2-yl)-1-(methyl-d3)-1H-pyrazole-5-carboxamide]
IC50 [1]: 5.2 nM | IC50 [2]: 4.5 nM | IC50 [3]: 8.6 nM | suppression of arthritis disease progression (arthritis score) [4]: completely suppressed arthritis disease progression

COCC(=O)N[C@@H](c1ncnn1CC1CC1)[C@@H](C)c1ccc(NC(=O)[C@@H](NC(=O)c2nonc2C)C(C2CC2)C2CC2)c(F)c1 [Compound 39, N-((S)-1,1-dicyclopropyl-3-((4-((1R,2S)-1-(1-(cyclopropylmethyl)-1H-1,2,4-triazol-5-yl)-1-(2-methoxyacetamido)propan-2-yl)-2-fluorophenyl)amino)-3-oxopropan-2-yl)-4-methyl-1,2,5-oxadiazole-3-carboxamide]
IC50 [1]: 2.2 nM | IC50 [2]: 1.8 nM | IC50 [3]: 2.6 nM | suppression of arthritis disease progression (arthritis score) [4]: completely suppressed arthritis disease progression

CCC(=O)N[C@@H](c1ncnn1CC1CC1)[C@@H](C)c1ccc(NC(=O)[C@@H](NC(=O)c2ccnn2CC)C2CCC(=C(F)F)CC2)c(F)c1 (stereo partly drawn) [Compound 77, N-((S)-2-((4-((1R,2S)-1-(1-(cyclopropylmethyl)-1H-1,2,4-triazol-5-yl)-1-propionamidopropan-2-yl)-2-fluorophenyl)amino)-1-(4-(difluoromethylene)cyclohexyl)-2-oxoethyl)-1-ethyl-1H-pyrazole-5-carboxamide]
IC50 [1]: 5.6 nM | IC50 [2]: 11 nM | IC50 [3]: 32 nM

CCC(=O)N[C@@H](c1ncnn1CC1CC1)[C@@H](C)c1ccc(NC(=O)[C@@H](NC(=O)c2ccnn2CC)C2CCC3(CC2)CC(F)(F)C3)c(F)c1 [Compound 78, N-((S)-2-((4-((1R,2S)-1-(1-(cyclopropylmethyl)-1H-1,2,4-triazol-5-yl)-1-propionamidopropan-2-yl)-2-fluorophenyl)amino)-1-(2,2-difluorospiro[3.5]nonan-7-yl)-2-oxoethyl)-1-ethyl-1H-pyrazole-5-carboxamide]
IC50 [1]: 48 nM | IC50 [2]: 376 nM | IC50 [3]: 517 nM

CCC(=O)N[C@@H](c1ncnn1CCNC1CC1)[C@@H](C)c1ccc(NC(=O)[C@@H](NC(=O)c2nonc2C)C(C2CC2)C2CC2)c(F)c1 [Compound 79, N-((S)-1,1-dicyclopropyl-3-((4-((1R,2S)-1-(1-(2-(cyclopropylamino)ethyl)-1H-1,2,4-triazol-5-yl)-1-propionamidopropan-2-yl)-2-fluorophenyl)amino)-3-oxopropan-2-yl)-4-methyl-1,2,5-oxadiazole-3-carboxamide]
IC50 [1]: 6 nM | IC50 [2]: 19 nM | IC50 [3]: 36 nM

CCC(=O)N[C@@H](c1ncn(CCNC2CC2)n1)[C@@H](C)c1ccc(NC(=O)[C@@H](NC(=O)c2nonc2C)C(C2CC2)C2CC2)c(F)c1 [Compound 80, N—((S)-1,1-dicyclopropyl-3-((4-((1R,2S)-1-(1-(2-(cyclopropylamino)ethyl)-1H-1,2,4-triazol-3-yl)-1-propionamidopropan-2-yl)-2-fluorophenyl)amino)-3-oxopropan-2-yl)-4-methyl-1,2,5-oxadiazole-3-carboxamide]
IC50 [1]: 18 nM | IC50 [2]: 32 nM | IC50 [3]: 49 nM

CCC(=O)N[C@@H](c1ncn(CC2CC2)n1)[C@@H](C)c1ccc(NC(=O)[C@@H](NC(=O)c2nonc2C)C(C2CC2)C2CC2)c(F)c1 [Compound 81, N-((S)-1,1-dicyclopropyl-3-((4-((1R,2S)-1-(1-(cyclopropylmethyl)-1H-1,2,4-triazol-3-yl)-1-propionamidopropan-2-yl)-2-fluorophenyl)amino)-3-oxopropan-2-yl)-4-methyl-1,2,5-oxadiazole-3-carboxamide]
IC50 [1]: 4.5 nM | IC50 [2]: 9.4 nM | IC50 [3]: 16 nM

CCC(=O)N[C@@H](c1ncccc1CC1CC1)[C@@H](C)c1ccc(NC(=O)[C@@H](NC(=O)c2ccnn2CC)C(C2CC2)C2CC2)c(F)c1 [Compound 82, N-((S)-1,1-dicyclopropyl-3-((4-((1R,2S)-1-(3-(cyclopropylmethyl)pyridin-2-yl)-1-propionamidopropan-2-yl)-2-fluorophenyl)amino)-3-oxopropan-2-yl)-1-ethyl-1H-pyrazole-5-carboxamide]
IC50 [1]: 5.6 nM | IC50 [2]: 10 nM | IC50 [3]: 8.4 nM

CCC(=O)N[C@H](c1ncnn1CC1CC1)[C@@H](C)c1ccc(NC(=O)[C@@H](NC(=O)c2nonc2C)C(C2CC2)C2CC2)c(F)c1 [Compound 83, N-((S)-1,1-dicyclopropyl-3-((4-((1S,2S)-1-(1-(cyclopropylmethyl)-1H-1,2,4-triazol-5-yl)-1-propionamidopropan-2-yl)-2-fluorophenyl)amino)-3-oxopropan-2-yl)-4-methyl-1,2,5-oxadiazole-3-carboxamide]
IC50 [1]: 21 nM | IC50 [2]: 45 nM | IC50 [3]: 39 nM

CCC(=O)N[C@@H](c1ncnn1CC1CC1)[C@@H](C)c1ccc(NC(=O)[C@H](NC(=O)c2nonc2C)C(C2CC2)C2CC2)c(F)c1 [Compound 84, N-((R)-1,1-dicyclopropyl-3-((4-((1R,2S)-1-(1-(cyclopropylmethyl)-1H-1,2,4-triazol-5-yl)-1-propionamidopropan-2-yl)-2-fluorophenyl)amino)-3-oxopropan-2-yl)-4-methyl-1,2,5-oxadiazole-3-carboxamide]
IC50 [1]: 31 nM | IC50 [2]: 63 nM | IC50 [3]: 85 nM

[2H]C([2H])([2H])n1nccc1C(=O)N[C@@H](C(=O)Nc1ccc([C@H](C)[C@@H](NC(=O)CC)c2ncnn2CC2CC2)cc1F)C(C1CC1)C1CC1 [Compound 85, N-((R)-1,1-dicyclopropyl-3-((4-((1R,2S)-1-(1-(cyclopropylmethyl)-1H-1,2,4-triazol-5-yl)-1-propionamidopropan-2-yl)-2-fluorophenyl)amino)-3-oxopropan-2-yl)-1-(methyl-d3)-1H-pyrazole-5-carboxamide]
IC50 [1]: 165 nM | IC50 [2]: 539 nM | IC50 [3]: 810 nM

[2H]C([2H])([2H])n1ccc(C(=O)N[C@H](C(=O)Nc2ccc([C@H](C)[C@@H](NC(=O)CC)c3ncnn3CC3CC3)cc2F)C(C2CC2)C2CC2)n1 [Compound 86, N-((S)-1,1-dicyclopropyl-3-((4-((1R,2S)-1-(1-(cyclopropylmethyl)-1H-1,2,4-triazol-5-yl)-1-propionamidopropan-2-yl)-2-fluorophenyl)amino)-3-oxopropan-2-yl)-1-(methyl-d3)-1H-pyrazole-3-carboxamide]
IC50 [1]: 23 nM | IC50 [2]: 143 nM | IC50 [3]: 228 nM

[2H]C([2H])([2H])n1nccc1C(=O)N[C@H](C(=O)Nc1ccc([C@H](C)[C@H](NC(=O)CC)c2ncnn2CC2CC2)cc1F)C(C1CC1)C1CC1 [Compound 87, N-((S)-1,1-dicyclopropyl-3-((4-((1S,2S)-1-(1-(cyclopropylmethyl)-1H-1,2,4-triazol-5-yl)-1-propionamidopropan-2-yl)-2-fluorophenyl)amino)-3-oxopropan-2-yl)-1-(methyl-d3)-1H-pyrazole-5-carboxamide]
IC50 [1]: 1980 nM | IC50 [2]: > 2000 nM | IC50 [3]: > 2000 nM

CCn1nccc1C(=O)N[C@H](C(=O)Nc1ccc([C@H](C)[C@@H](NC(=O)COC)c2nnc3cnccn23)cc1F)C(C1CC1)C1CC1 [Compound 88, N-((S)-1-((4-((1R,2S)-1-([1,2,4]triazolo[4,3-a]pyrazin-3-yl)-1-(2-methoxyacetamido)propan-2-yl)-2-fluorophenyl)amino)-3,3-dicyclopropyl-1-oxopropan-2-yl)-1-ethyl-1H-pyrazole-5-carboxamide]
IC50 [1]: 23 nM | IC50 [2]: 42 nM | IC50 [3]: 98 nM
